Assay [1] deals with T1, histamine-H2 receptor (Cavia porcellus, UniProt P47747).
T1 construct: the heart removed and the right atria dissected free; from tissue; host or cells: guinea pig right atria (isolated, spontaneously beating)
Description: Histamine-H2 antagonist activity in isolated guinea pig right atria (pA2). It is filed as cell-based, Guinea pigs. The following applies: Krebs-Henseleit buffer pH 7.4, 32°±2° C., histamine dose-response, * tested as the dihydrobromide salt, read-out: pA2 (apparent dissociation constant of the H2-receptor antagonist) (converted). The method, then: The histamine-H2 antagonist activity of compounds of the present invention was determined by the following procedure:
Guinea pigs are killed rapidly with a blow to the head, the heart removed and the right atria dissected free. Atria are suspended, isometrically, in a temperature-controlled (32°±2° C.) tissue bath (10 ml) containing oxygenated (95% O2; 5% CO2) Krebs-Henseleit buffer (pH 7.4) and are allowed to stabilize approximately one hour during which time the tissue bath is flushed several times. Individual atrial contractions are followed with a force-displacement transducer connected to a cardiotachometer and Grass polygraph recorder. After obtaining a dose-response curve to histamine, the bath containing each atrium is flushed several times with fresh buffer and the atria reequilibrated to basal rates. Following the return to basal rate, test compounds are added at selected final concentrations and the histamine dose-response curve is again determined in the presence of antagonist. Results are expressed as dose-ratios, the ratio of histamine concentrations required to produce one-half of maximal stimulation in the presence and absence of antagonist, and the apparent dissociation constant of the H2 -receptor antagonist pA2, is determined.

Assay [2] concerns gastric acid secretion (pentagastrin-stimulated acid output from the gastric pouch). The assay can be described thus: Gastric acid antisecretory activity in pentagastrin-stimulated conscious Heidenhain pouch dogs. It is filed as in vivo. The following applies: Canis lupus familiaris; for inhibition in vivo at 2 mg/kg: oral dose of 2 mg/kg, Heidenhain pouch dogs, pentagastrin; for inhibition in vivo at up to 2 mg/kg: at the same (oral 2 mg/kg) or a lower dose. The method, then:
The gastric acid antisecretory activity of compounds of the present invention was determined in overnight fasted, conscious Heidenhain pouch dogs. Pentagastrin (Pentavolon-Ayerst) was used to stimulate acid output by continuous infusion into a superficial leg vein at doses earlier determined to stimulate near maximal acid output from the gastric pouch. Gastric juice was collected at 30 minute intervals following the start of a pentagastrin infusion and measured to the nearest 0.1 ml. Ten collections were taken for each dog during an experiment. Acid concentration was determined by tritrating 1.0 ml of gastric juice to pH 7.4 with 0.1N sodium hydroxide using an Autoburette and a glass electrode pH meter (Radiometer).
Drug or vehicle was given intravenously or orally 90 minutes following the start of the pentagastrin infusion, at a dose of 2 mg/kg or less. Gastric acid antisecretory effects were calculated by comparing the lowest acid output after drug administration with the mean acid output immediately before drug.

Assay [3] has as its system ethanol-induced gastric ulceration. The assay can be described thus: Inhibition of ethanol-induced ulceration in rats. It is filed as in vivo, male rats. The conditions noted are these: for cytoprotection (inhibition of ethanol-induced ulceration): same dosage, 30 mg/kg oral. As for the experimental part:
The antiulcer activity of the products of this invention was also determined by an ethanol-induced rat ulcer assay. In this test, overnight fasted male rats are given drug (at 30 or 3 mg/kg) or water orally fifteen minutes prior to an orally administered dose of absolute ethanol (1.0 ml). One hour after the ethanol challenge the animals (8/group) are killed and the stomachs examined for the presence of lesions. After sacrifice the abdomen is opened and a locking hemostat placed at the pylorus. Six ml of a 4% solution of formaldehyde was injected into the stomach with a gastric feeding tube and a second locking hemostat was used to seal the esophagus. The stomach was removed, opened along the greater curvature and examined for ulceration.
The scoring system used to quantitate the ethanol-induced lesions is given below.
For each group of animals an ulcer index is calculated as follows:
Ulceration Index=(the sum of the scores of the group)×(the sum of the number of ulcers in the group)×(the fraction of the group having any incidence of ulceration).
The percentage inhibition of ulcers is calculated as follows:
% Inhibition=100×[(ulcer index controls)-(ulcer index
drug-treated)].div.(ulcer index controls).

Where [4] appears, read: oral dose of 3 mg/kg, * tested as the dihydrobromide salt.
The mark [5] stands for this setting: * tested as the dihydrobromide salt.
The mark [6] stands for this setting: oral dose of 30 mg/kg, fifteen minutes prior to absolute ethanol.

This is an account of results in US4560690A, “2-(N-substituted guanidino)-4-hetero-arylthiazole antiulcer agents” (Pfizer Inc., priority 1984, dated 1985).

T1 sequence (P47747 whole entry): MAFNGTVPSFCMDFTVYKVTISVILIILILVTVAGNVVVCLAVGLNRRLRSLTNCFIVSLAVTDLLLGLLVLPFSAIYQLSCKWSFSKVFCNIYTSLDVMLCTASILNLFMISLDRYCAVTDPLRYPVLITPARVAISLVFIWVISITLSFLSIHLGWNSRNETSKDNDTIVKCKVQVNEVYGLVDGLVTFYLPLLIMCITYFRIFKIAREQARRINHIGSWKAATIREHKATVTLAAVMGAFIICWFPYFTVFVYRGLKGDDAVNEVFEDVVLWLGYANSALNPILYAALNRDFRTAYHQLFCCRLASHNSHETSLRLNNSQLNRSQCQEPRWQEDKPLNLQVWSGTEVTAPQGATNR

As for `Cc1nc(-c2csc(NC(=N)NCc3ccccc3)n2)c[nH]1` [Example 6a, N-[4-(2-methylimidazol-4-yl)thiazol-2-yl]-N'-benzylguanidine], in assay [1], the Kb is no more than 0.0631 µM.

For orientation: inhibition in vivo means the relative decrease from the control value, in per cent. Turning to `CCCCCCCCNC(N)=Nc1nc(-c2c[nH]c(C)n2)cs1` [Example 6g], the Kb in assay [1] is no more than 0.126 µM. The inhibition in vivo at 2 mg/kg in assay [2] was no less than 24%.

As for `CCCCCCC(C)NC(=N)Nc1nc(-c2c[nH]c(C)n2)cs1` (stereo not shown) [Example 6b, N-[4-(2-methylimidazol-4-yl)thiazol-2-yl]-N'-2-octylguanidine], in assay [1], the Kb was no more than 0.0631 µM. The “inhibition of ethanol-induced ulceration” value in assay [3] (setting [4]) is recorded as “at least 40%”. Also, the inhibition in vivo at up to 2 mg/kg in assay [2] (setting [5]) was no less than 64%.

For `Cc1nc(-c2csc(N=C(N)NCCCCc3ccccc3)n2)c[nH]1` [Example 6o], the “inhibition of ethanol-induced ulceration” value in assay [3] (setting [6]) is recorded as “at least 77%”. Moreover, the “cytoprotection (inhibition of ethanol-induced ulceration)” value in assay [3] was no less than 90%. The same compound registered an inhibition in vivo at 2 mg/kg in assay [2] of no less than 24%.

With `CCCCCCC(C)NC(=N)Nc1nc(-c2c[nH]c(C)n2)cs1` (stereo not shown) [Example 6j, N-[4-(2-methylimidazol-4-yl)thiazol-2-yl]-N'-2-octylguanidine], in assay [3] (setting [6]), the “inhibition of ethanol-induced ulceration” value was “at least 77%”.

In the case of `Cc1nc(-c2csc(N=C(N)NCCCc3ccccc3)n2)c[nH]1` [Example 6n], in assay [1], the Kb was no more than 0.0631 µM. The inhibition in vivo at 2 mg/kg in assay [2] was no less than 24%.

Turning to `CCCCCCCNC(N)=Nc1nc(-c2c[nH]c(C)n2)cs1` [Example 6f], the Kb in assay [1] is no more than 0.0631 µM. Further, the “inhibition of ethanol-induced ulceration” value in assay [3] (setting [6]) was “at least 77%”. Moreover, the “cytoprotection (inhibition of ethanol-induced ulceration)” value in assay [3] is on record as no less than 90%. For the same compound, in assay [2], the inhibition in vivo at 2 mg/kg was no less than 24%.

`Cc1nc(-c2csc(N=C(N)NCCc3ccccc3)n2)c[nH]1` [Example 6m]: the Kb in assay [1] is no more than 0.0631 µM. The “inhibition of ethanol-induced ulceration” value in assay [3] (setting [6]) is listed as “at least 77%”. For the same compound, in assay [2] (setting [5]), the inhibition in vivo at up to 2 mg/kg was no less than 64%.

Take `CCCCCNC(N)=Nc1nc(-c2c[nH]c(C)n2)cs1` [Example 6c]: the Kb in assay [1] was no more than 0.126 µM. The “cytoprotection (inhibition of ethanol-induced ulceration)” value in assay [3] is listed as no less than 90%. Moreover, in assay [2] (setting [5]), the inhibition in vivo at up to 2 mg/kg was no less than 64%.

With `Cc1nc(-c2csc(NC(=N)NCc3ccccc3)n2)c[nH]1` [Example 6l, N-[4-(2-methylimidazol-4-yl)thiazol-2-yl]-N'-benzylguanidine], the “inhibition of ethanol-induced ulceration” value was “at least 40%” in assay [3] (setting [4]) and “at least 77%” in assay [3] (setting [6]). Besides, the inhibition in vivo at up to 2 mg/kg in assay [2] (setting [5]) was no less than 64%.

Consider `CCCCCCNC(N)=Nc1nc(-c2c[nH]c(C)n2)cs1` [Example 5*], for which the Kb in assay [1] was no more than 0.0631 µM. Moreover, in assay [2] (iv, dose of 0.1 mg/kg (i.v.), * tested as the dihydrobromide salt), the inhibition in vivo at 0.1 mg/kg worked out at 58%. The inhibition in vivo at up to 2 mg/kg in assay [2] (setting [5]) was no less than 64%.
